Reference: US20050101560A1, “Method of treating an individual with methyl 1-[N6-(3-iodobenzyl)-adenin-9-yl] beta-D-ibofuronamide” (CAN-FITE BIOPHARMA LTD., priority 2003, published 2005)
Where “and” joins values, the source holds several entries; their conditions need not be identical. Equal entries are not always repeated. Entries after “also recorded” stand apart in the source; their conditions may differ.

What was measured:
[1] = Single dose study: safety and tolerability; format: in vivo, human; conditions: for safety and tolerability: single (daily) oral dose up to 5 mg
Procedure: (§1) Two clinical studies were carried out: a single dose study and a repeat dose study. Both studies were parallel-group, double-blind, dose-rising, and placebo-controlled in design.
(§2) In each group, 1 subject received placebo. […] In each group, 2 subjects received placebo.
(§3) Healthy young men, aged 18-45 years.
(§4) In the repeated dose study, an aqueous 0.5% methylcellulose suspension (Methocel A4M Premium, The Dow Chemical Company) was used. In both studies, the study medication was taken orally as a drink, followed by 50 ml of tap water.
(§5) The following procedures were done: • Safety assesment: laboratory assessments (routine biochemistry and urinalysis), physical examination, 12-lead ECO, ambulatory ECG, pulmonary function testing (FEV1), vital signs (semi-recumbent in the single dose study; semi-recumbent and standing in the repeat dose study).
(§6) Data from all subjects who received IB-MECA were included in the analysis of safety and tolerability (adverse events and laboratory safety variables). Numerical data and parameters were summarised using means or medians, and other descriptive statistics, according to the type and distribution of the data.

[2] = Single dose study: plasma pharmacokinetics after a single oral dose; format: in vivo, human; conditions: for AUC(0-48): mean (SD)
Procedure: as §1, §2, §3, §4, §5
(§7) Plasma samples were assayed for IB-MECA using LC/MS/MS. The lower limit of quantification (LLOQ) was 0.1 ng/mL. Intra-assay coefficients of variation (CV) were <5.0% and inter-assay CVs were <9.4%.
(§8) Maximum concentration (Cmax) and time to maximum concentration (tmax) were observed values. Other pharmacokinetic parameters (half-life, to AUC; and clearance, CL/F) were calculated by non-compartmental methods using WinNonlin® software (version 3.0, Pharsight, Mountain View, Calif., US). Accumulation indices of Cmax and AUC were calculated as ratio of values at steady state (Day 7) to the values on Day 1.

Water solubility = format: physicochemical
[3] = Repeat dose study: safety and tolerability; format: in vivo, human; conditions: for safety and tolerability: twice daily (12-hourly) oral dose up to 4 mg
Procedure: as §1, §2, §3, §4, §5, §6

neutrophils = conditions: cited from earlier work
[4] = tested on: syngeneic (melanoma, colon carcinoma) and xenograft (colon and prostate carcinoma) mouse models; conditions: cited from earlier work
[5] = Repeat dose study: plasma pharmacokinetics on Days 1 and 7 of 12-hourly oral dosing; format: in vivo, human
Procedure: as §1, §2, §3, §4, §5, §7, §8

[6] = tested on: various tumour cell types; conditions: arresting cell growth at GO/GI phase; Fishman et al, 2000a; cited from earlier work
[7] = 2 mg oral every 12 h, Day 1, mean (SD), n = 5
[8] = 2 mg oral every 12 h, Day 7, mean (SD), n = 5
[9] = 3 mg oral every 12 h, Day 1, mean (SD), n = 5
[10] = 3 mg oral every 12 h, Day 7, mean (SD), n = 5
[11] = 4 mg oral every 12 h, Day 1, mean (SD), n = 5
[12] = 4 mg oral every 12 h, Day 7, mean (SD), n = 5
[13] = 5 mg oral every 12 h, Day 1, mean (SD), n = 5
[14] = 5 mg oral every 12 h, Day 7, mean (SD), n = 5

## CNC(=O)[C@H]1O[C@@H](n2cnc3c(NCc4cccc(I)c4)ncnc32)[C@H](O)[C@@H]1O [IB-MECA, methyl 1-[N6-(3-iodobenzyl)-adenin-9-yl]-β-D-ibofuronamide]
[1]; healthy adults, oral dosing
  blood level correlated with side effects: exceeding 160 nM and > 80 ng/ml
[1]
  safety and tolerability: safe and well tolerated
[1]; listed as 13-MCA
  safety and tolerability: well tolerated
[1]; single daily oral dose 10 mg
  side effects: some cardiovascular-related side effects
[1]; single dose 5 mg, four subjects
  change in resting heart rate: small increase
[1]; single dose of 10 mg
  adverse events within 12 h of dosing (number): 8
[1]; single dose study
  safety tests of blood and urine: no clinically significant changes
[1]; single dose study, not measured standing
  change in blood pressure: In no subject was there a significant change
[2]; single daily dose of 5 mg and twice daily dose of 4 mg
  plasma level (Cmax) at safe doses: < 80 ng/mL
[2]; single oral dose 1 mg, n = 4
  AUC(0-48): 220.7 ng·h/mL
[2]; single oral dose 1 mg, median (range), n = 4
  tmax: 1 (1-2) h
[2]; single oral dose 5 mg, n = 4
  AUC(0-48): 872.3 ng·h/mL
[2]; single oral dose 5 mg, median (range), n = 4
  tmax: 1 (1-2) h
[2]; single oral dose 10 mg, n = 4
  AUC(0-48): 1780.0 ng·h/mL
[2]; single oral dose 10 mg, median (range), n = 4
  tmax: 1 (1-2) h
[2]; single oral doses
  inter-subject variability: low
[2]; single oral doses 1, 5, 10 mg
  pharmacokinetics (linearity): linear
[2]; single oral doses 1, 5, 10 mg, overall range
  tmax: 1 to 2 h
[2]; single oral doses, independent of dose
  apparent plasma clearance (CL/F): 47 L/h
Water solubility
  water solubility: not water soluble
[3]; 5 mg oral twice daily
  adverse events: some cardiovascular-related adverse events; also recorded: headache and drowsiness were most common
[3]; repeat dose study
  safety tests of blood and urine: no clinically significant changes
[3]; repeat dose study, Day 1
  heart rate: dose-related increase
[3]; repeat dose study, Day 7 versus Day 1
  heart rate effect: clearly smaller
[3]; repeated doses of 5 mg 12-hourly
  adverse events within 12 h of dosing (number): 13
[3]; repeated doses of up to 4 mg 12-hourly
  adverse events within 12 h of dosing (number): 2
[3]
  safety and tolerability: safe and well tolerated
[3]; listed as 13-MCA
  safety and tolerability: well tolerated
[3]; twice-daily therapeutic regimen
  maximum tolerated dose: 4 mg
neutrophils; administered with chemotherapy
  myelotoxicity: protects against myelotoxicity
neutrophils; oral administration, after cytotoxic drug therapy
  neutrophil recovery: stimulates neutrophil recovery
neutrophils; oral, mice, via an increase in G-CSF
  production of neutrophils: stimulates the production of neutrophils
[4]; oral administration, nude mice
  colon carcinoma growth: inhibits colon carcinoma growth
[4]; orally administered, syngeneic and xenograft mouse models
  development of tumours: inhibits the development of tumours
[5]; [7]
  AUC(0-12): 155.2 (39.1) ng · h/mL
  AUC(inf): 207.4 (52.0) ng · h/mL
[5]; 2 mg oral every 12 h, Day 1, median (range), n = 5
  tmax: 2 (1-4) h
[5]; [8]
  AUC(0-12): 242.4 (41.4) ng · h/mL
  AUC(0-24): 346.3 (64.0) ng · h/mL
[5]; 2 mg oral every 12 h, Day 7, median (range), n = 5
  tmax: 2 (1-2) h
[5]; [9]
  AUC(0-12): 304.5 (19.5) ng · h/mL
  AUC(inf): 423.5 (27.5) ng · h/mL
[5]; 3 mg oral every 12 h, Day 1, median (range), n = 5
  tmax: 2 (1-2) h
[5]; [10]
  AUC(0-12): 341.6 (38.1) ng · h/mL
  AUC(0-24): 512.1 (74.1) ng · h/mL
[5]; 3 mg oral every 12 h, Day 7, median (range), n = 5
  tmax: 1 (1-2) h
[5]; [11]
  AUC(0-12): 297.0 (57.2) ng · h/mL
  AUC(inf): 400.2 (85.7) ng · h/mL
[5]; 4 mg oral every 12 h, Day 1, median (range), n = 5
  tmax: 2 (1-2) h
[5]; [12]
  AUC(0-12): 458.3 (54.8) ng · h/mL
  AUC(0-24): 640.3 (73.7) ng · h/mL
[5]; 4 mg oral every 12 h, Day 7, median (range), n = 5
  tmax: 1 (1-2) h
[5]; [13]
  AUC(0-12): 461.6 (157.4) ng · h/mL
  AUC(inf): 596.1 (196.6) ng · h/mL
[5]; 5 mg oral every 12 h, Day 1, median (range), n = 5
  tmax: 2 (1-2) h
[5]; [14]
  AUC(0-12): 601.0 (163.6) ng · h/mL
  AUC(0-24): 818.4 (214.0) ng · h/mL
[5]; 5 mg oral every 12 h, Day 7, median (range), n = 5
  tmax: 2 (2-2) h
[5]; Day 1 and steady state (Day 7)
  dose proportionality of plasma concentrations: dose proportional
[5]; repeated oral doses 2-5 mg every 12 h, overall
  tmax: 1 to 2 h
[5]; repeated oral doses every 12 h
  time at which steady state was reached: ≤ 3 days
[5]; repeated oral doses every 12 h for 7 days
  change of pharmacokinetics after repeated dosing: did not change
[5]; repeated oral doses, Day 7, independent of dose
  Half-life at steady state: 9 to 10 h
[5]; repeated oral doses, independent of dose
  apparent plasma clearance (CL/F): 5 to 10 L/h
[6]
  effect on tumour cell growth: cytostatic effect
